A word on the MIC: it is the smallest concentration in the dilution series that meets the test's criterion for growth inhibition.

In brackets after ≈: the same amount, converted by molar mass. Read-outs that look alike come from different tables or passages of the source.

One experiment has as its system S. aureus 53-180. Briefly: In vitro antibacterial activity (MIC), S. aureus 53-180. The conditions noted are these: Staphylococcus aureus, 53180, 18 h.
Experiment [1] deals with Plasmodium berghei KBG 173. Briefly: Antimalarial blood schizonticidal test in mice. The format is in vivo, Plasmodium berghei (infected ICR/HA Swiss mice). More on the design: ΔMST (increase in mean survival time): unit: days. Particulars: s.c.; for minimal effective dose: Plasmodium berghei, sc, single dose, read-out: Min. Curing Dose; for Cure/Treat at Min. Curing Dose: at the Min. Curing Dose. From the text:
In addition, the invention provides compounds which have antimalarial activity in vivo as evidenced by a standard blood schizonticidal test in mice infected with Plasmodium berghei KBG 173.
Utilizing young ICR/HA Swiss mice and a standard inoculum of Plasmodium berghei KBG 173, it is possible to produce a uniform disease fatal to 100% of untreated animals within 6 to 8 days with a mean survival time of 6.2 days. Test animals weigh from 18 to 22 grams but weight variations in any given experimental or control group are confined to 2-3 grams. All animals in any given test are approximately of the same age. Animals on test are housed in metal-topped plastic cages, given a standard laboratory diet and water ad libitum.
Test animals receive an intraperitoneal injection of 0.5 ml. of 1:100 dilution of heparinized heart's blood with a minimum of 90% parasitized cells (4 × 10^7 cells), drawn from donor mice infected one week earlier with Plasmodium berghei. The donor strain is maintained by weekly passages in separate groups of mice inoculated with a 0.5 ml. of 1:500 dilution of heparinized heart's blood.
Test compounds are administered after dissolution or suspension in peanut oil. A single dose is given subcutaneously 72 hours after the mice are infected with Plasmodium berghei. At this time a 10-15 percent parasitemia has developed; the disease is well established but has not produced sufficient debility to alter the response of the host to toxic effects of the drug on test. Since treatment is withheld for three days to permit the infection to become well established and death occurs in untreated controls within 6-8 days, it is felt that this system presents a candidate compound with the maximum challenge. In order to check factors such as changes in the infectivity of Plasmodium berghei or in the susceptibility of the host or to detect technical errors, a group of infected animals treated with pyrimethamine at dose levels producing definite increases in survival time is included in a positive control in every experiment.
In each experiment test compounds are administered in graded dosages. […] However, if an active drug is toxic for the host, its toxicity may become a limiting factor; continued increases in dose levels also increase the toxic effects and may result in the diminution of survival times. Deaths prior to the sixth day, when untreated controls begin to die, are regarded as nonparasitic and become the basis for toxicity evaluations. […] In calculating mean survival time, toxic deaths and 60-day survivors are not included.
Compounds are considered active which produce a cure in at least one test animal or which produce significant increases in mean survival times of the treated animals as compared with the mean survival times of untreated controls, provided that no drug related deaths (toxicity) are noted at the active dose.

In the next experiment the test system is S. aureus Smith. Briefly: In vitro antibacterial activity (MIC), S. aureus Smith. Particulars: Staphylococcus aureus, 18 h.
The subject of a further experiment is S. paratyphi 11737. Description: In vitro antibacterial activity (MIC), S. paratyphi 11737. In kind it is cell-based. The conditions noted are these: Salmonella enterica, 18 h.
In another experiment the test system is N. catarrhalis 8193. Briefly: In vitro antibacterial activity (MIC), N. catarrhalis 8193. The conditions noted are these: 18 h.
Another experiment concerns E. coli 9637. Briefly: In vitro antibacterial activity (MIC), E. coli 9637. Particulars: Escherichia coli, 9637, 18 h.
For a further experiment, the system named is K. pneumoniae 10031. Briefly: In vitro antibacterial activity (MIC), K. pneumoniae 10031. The conditions noted are these: Klebsiella pneumoniae, 10031, 18 h.
Another experiment relates to P. vulgaris 6896. Description: In vitro antibacterial activity (MIC), P. vulgaris 6896. Particulars: Proteus vulgaris, 6896, 18 h.

Regarding `Nc1nc(N)c2c(ccc3c2ccn3Cc2cccc(C(F)(F)F)c2)n1` [Example 12], the minimal inhibitory concentration (MIC) turned out to be 0.244 µg/mL (≈ 0.683 µM) in the experiment with S. aureus 53-180; 0.488 µg/mL (≈ 1.37 µM) in the experiment with S. aureus Smith; 7.81 µg/mL (≈ 21.9 µM) against S. paratyphi 11737; 0.122 µg/mL (≈ 0.341 µM) with N. catarrhalis 8193; 0.976 µg/mL (≈ 2.73 µM) against E. coli 9637; 0.488 µg/mL (≈ 1.37 µM) with K. pneumoniae 10031. Besides, inhibition of growth in the experiment on P. vulgaris 6896 (MIC) required 62.5 µg/mL (≈ 175 µM). Further, the minimal effective dose in experiment [1] (1440 h, 60-day survivors) was 5 mg/kg. For the same compound, in experiment [1] (60-day survivors), the “Cure/Treat at Min. Curing Dose” value is reported as 1/5. Also, in experiment [1] (dose 2.5 mg. per kg.), the “ΔMST (increase in mean survival time)” value came out at 7.5.
On to `CC(=O)c1ccc(-n2ccc3c4c(N)nc(N)nc4ccc32)cc1` [Example 71], for which the MIC against S. aureus 53-180 amounted to 0.488 µg/mL (≈ 1.54 µM); against S. aureus Smith, 1.95 µg/mL (≈ 6.14 µM); in the experiment with S. paratyphi 11737 it was 7.81 µg/mL (≈ 24.6 µM); in the experiment on N. catarrhalis 8193, 0.031 µg/mL (≈ 0.0977 µM); in the experiment on E. coli 9637, 0.976 µg/mL (≈ 3.08 µM); against K. pneumoniae 10031 it was 0.122 µg/mL (≈ 0.384 µM). Besides, the MIC in the experiment with P. vulgaris 6896 worked out at 15.6 µg/mL (≈ 49.2 µM). For the same compound, the minimal effective dose in experiment [1] (1440 h, 60-day survivors) was found to be 40 mg/kg. Further, the “Cure/Treat at Min. Curing Dose” value in experiment [1] (60-day survivors) is listed as 1/5. Also, the “ΔMST (increase in mean survival time)” value in experiment [1] (dose 20 mg. per kg.) came out at 8.8.
As for `Nc1nc(N)c2c(ccc3c2ccn3-c2ccc([N+](=O)[O-])cn2)n1` [Example 82], the MIC is 3.9 µg/mL (≈ 12.1 µM) against S. aureus 53-180; 0.976 µg/mL (≈ 3.04 µM) against S. aureus Smith; above 250 µg/mL with S. paratyphi 11737; 0.031 µg/mL (≈ 0.0965 µM) in the experiment on N. catarrhalis 8193; above 250 µg/mL in the experiment with E. coli 9637; 31.3 µg/mL (≈ 97.4 µM) in the experiment with K. pneumoniae 10031. The same compound came in with an MIC against P. vulgaris 6896 above 250 µg/mL. The minimal effective dose in experiment [1] (336 h, alive on day 14 considered cured, no 60-day data) came out at 160 mg/kg. The “Cure/Treat at Min. Curing Dose” value in experiment [1] (alive on day 14 considered cured) is 1/5.
Consider `Nc1nc(N)c2c(ccc3c2ccn3CC2CCCCC2)n1` [Example 54], for which the MIC against S. aureus 53-180 was 3.9 µg/mL (≈ 13.2 µM); against S. aureus Smith it was 7.81 µg/mL (≈ 26.4 µM); in the experiment with S. paratyphi 11737, 7.81 µg/mL (≈ 26.4 µM); against N. catarrhalis 8193, 0.0152 µg/mL (≈ 0.0515 µM); against E. coli 9637, 1.95 µg/mL (≈ 6.6 µM); against K. pneumoniae 10031 it was 0.488 µg/mL (≈ 1.65 µM). The compound also gave an MIC in the experiment with P. vulgaris 6896 of 3.9 µg/mL (≈ 13.2 µM). Besides, in experiment [1] (dose 40 mg. per kg.), the “ΔMST (increase in mean survival time)” value is recorded as 8.5.
With `CC(=O)c1ccccc1-n1ccc2c3c(N)nc(N)nc3ccc21` [Example 70], the MIC with S. aureus 53-180 stood at 0.031 µg/mL (≈ 0.0977 µM); in the experiment on S. aureus Smith it was 0.061 µg/mL (≈ 0.192 µM); with S. paratyphi 11737, 0.488 µg/mL (≈ 1.54 µM); with N. catarrhalis 8193, 0.0076 µg/mL (≈ 0.0239 µM); against E. coli 9637, 0.244 µg/mL (≈ 0.769 µM); with K. pneumoniae 10031, 0.0152 µg/mL (≈ 0.0479 µM). This compound had a minimal inhibitory concentration (MIC) in the experiment on P. vulgaris 6896 of 0.976 µg/mL (≈ 3.08 µM). Further, the minimal effective dose in experiment [1] (1440 h, 60-day survivors) was determined as 40 mg/kg. Besides, the “Cure/Treat at Min. Curing Dose” value in experiment [1] (60-day survivors) is reported as 1/5. Besides, the “ΔMST (increase in mean survival time)” value in experiment [1] (dose 40 mg. per kg.) is listed as 9.2.
In the case of `Nc1nc(N)c2c(ccc3c2ccn3-c2ccccc2[N+](=O)[O-])n1` [Example 76], the MIC in the experiment with S. aureus 53-180 came to 0.244 µg/mL (≈ 0.762 µM); in the experiment on S. aureus Smith, 0.244 µg/mL (≈ 0.762 µM); against S. paratyphi 11737, 1.95 µg/mL (≈ 6.09 µM); with N. catarrhalis 8193 it was 0.031 µg/mL (≈ 0.0968 µM); with E. coli 9637, 0.976 µg/mL (≈ 3.05 µM); in the experiment on K. pneumoniae 10031, 0.244 µg/mL (≈ 0.762 µM). For the same compound, the MIC against P. vulgaris 6896 is 3.9 µg/mL (≈ 12.2 µM). The minimal effective dose in experiment [1] (1440 h, 60-day survivors) worked out at 40 mg/kg. In addition, the “Cure/Treat at Min. Curing Dose” value in experiment [1] (60-day survivors) is listed as 4/5.
As to `Nc1nc(N)c2c(ccc3c2ccn3Cc2ccc3c(c2)OCO3)n1` [Example 38], the MIC against S. aureus 53-180 is 1.95 µg/mL (≈ 5.85 µM); in the experiment with S. aureus Smith it was 7.81 µg/mL (≈ 23.4 µM); in the experiment on S. paratyphi 11737, 15.6 µg/mL (≈ 46.8 µM); against N. catarrhalis 8193, 0.244 µg/mL (≈ 0.732 µM); against E. coli 9637, 7.81 µg/mL (≈ 23.4 µM); in the experiment with K. pneumoniae 10031, 1.95 µg/mL (≈ 5.85 µM). The same compound came in with an MIC in the experiment with P. vulgaris 6896 of 31.3 µg/mL (≈ 93.9 µM). Further, the minimal effective dose in experiment [1] (1440 h, 60-day survivors) came to 10 mg/kg. The “Cure/Treat at Min. Curing Dose” value in experiment [1] (60-day survivors) is given as 2/5. Besides, the “ΔMST (increase in mean survival time)” value in experiment [1] (dose 2.5 mg. per kg.) turned out to be 12.2.
Consider `Cc1cc2c(ccc3nc(N)nc(N)c32)[nH]1` [Example 98, 8-Methyl-7H-pyrrolo[3,2-f]quinazoline-1,3-diamine], for which the minimal inhibitory concentration (MIC) was determined as 31.3 µg/mL (≈ 147 µM) with S. aureus 53-180; 31.3 µg/mL (≈ 147 µM) with S. aureus Smith; 15.6 µg/mL (≈ 73.2 µM) against S. paratyphi 11737; 1.95 µg/mL (≈ 9.14 µM) against N. catarrhalis 8193; 3.9 µg/mL (≈ 18.3 µM) with E. coli 9637; 3.9 µg/mL (≈ 18.3 µM) against K. pneumoniae 10031. Besides, in the experiment on P. vulgaris 6896, the MIC was determined as 15.6 µg/mL (≈ 73.2 µM). In addition, in experiment [1] (1440 h, 60-day survivors), the minimal effective dose came to 160 mg/kg. For the same compound, the “Cure/Treat at Min. Curing Dose” value in experiment [1] (60-day survivors) is 3/5. Moreover, the “ΔMST (increase in mean survival time)” value in experiment [1] (dose 160 mg. per kg.) was 13.9.

The values are drawn from patent publication US4118561A, “7-(Substituted)-7H-pyrrolo[3,2-f]quinazoline-1,3-diamines” (priority 1977, dated 1978).
